Measurements: US8765684B2, “Solid materials of {[(2S,5R,8S,11S)-5-benzyl-11-(3-guanidino-propyl)-8-isopropyl-7-methyl-3,6,9,12,15-pentaoxo-1,4,7,10,13-pentaaza-cyclopentadec-2-yl]-acetic acid} and methods for obtaining them” (Merck Patent GmbH, priority 2009, dated 2014)
Several values for one entry are separate records, joined by “and”; a condition that tells them apart may be missing. Equal values may be shown once.

Key:
[1] = Competitive slurry conversion of pseudopolymorphic form and form A1 (1:1) in Water/Methanol and Water/Ethanol mixtures; format: physicochemical; settings: 1:1 pseudopolymorphic form + A1
Description: b) Additionally, crystalline tetrasolvates according invention and especially crystalline forms S1 and S2 can be manufactured by competitive slurry conversion experiments with a mixture of a pseudopolymorphic form (for example S1, S2, S3 or mixtures of these) with form A1 (1:1) in Water/Methanol and Water/Ethanol mixtures with different alcohol contents at different temperatures, respectively.
(§1) Approx. 20 mg of a pseudopolymorphic form (for example S1, S2, S3 or mixtures of these) and 20 mg of form A1 of Cilengitide are dispersed in 300 μl Water/alcohol mixture at 0° C. or room temperature (25° C.). The dispersion is stirred for 24 h and additionally for 3 weeks at RT (25° C.) (long-term experiment) by a magnetic stirrer and finally filtered
Approx. 20 mg of a pseudopolymorphic form (for example S1, S2, S3 or mixtures of these) and 20 mg of form A1 of Cilengitide are dispersed in 300 μl Water/alcohol mixture at 50° C. The dispersion is stirred for 24 h by a magnetic stirrer and finally filtered.
Additionally form A1 can be manufactured by competitive slurry conversion experiments with a mixture of a pseudopolymorphic form (for example S1, S2, S3 or mixtures of these) and form A1 (1:1) in Water/Methanol and Water/Ethanol mixtures with different alcohol contents at different temperatures. In the following table the conditions for the experiments leading to the pure form A1 are listed.
as §1, with “C.,” for “C. or”, “and 50° C.” for “(25° C.).”, “filtered.” for “filtered”

[2] = format: physicochemical
Description: In the respective dynamic vapor sorption experiments discussed in more detail herein using ethanol vapor at 98% relative saturation for the Dihydrate-diethanolate/crystalline form S2 at 25° C. starting with the tetrahydrate a mass gain of 17% has been obtained. This is in good agreement with the above shown results for the tetraethanolate (calculated 117.0%, i.e. 17.0% of mass gain). Preferably, the tetrasolvates according to the invention, more preferably the Dihydrate-diethanolate, the Dihydrate-ethanolate, the Dihydrate-monoethanolate, the Diethanolate and/or the desolvates thereof, and especially the crystalline form S2 can be characterised, alternatively or additionally, by dynamic vapour experiments using water vapour and/or methanol vapour. The results can be obtained by standard techniques as described in Rolf Hilfiker, ‘Polymorphism in the Pharmaceutical Industry’, Wiley-VCH. Weinheim 2006 (Chapter 9: Water Vapour Sorption, and references therein). […] Upon water vapour adsorption, an assembly of water molecules in the lattice is observed, with a maximum weight gain of approx. 6.4 wt % at elevated rh. In the second desorption cycle a total mass loss of approx. 9.2 wt % is observed. For a Dihydrate Di-Ethanolate of the compound of formula I, the calculated Ethanol content equals 12.5 wt %. […] Thus, crystalline form S2 is a crystalline Ethanol solvate form or a mixed water/ethanol solvate form, preferably selected from the Dihydrate-ethanolate, the Dihydrate-monoethanolate, the Diethanolate and/or the desolvates thereof, which can be obtained e.g. via Ethanol Vapour Sorption, preferably via Ethanol Vapour Sorption starting with a hydrate structure, such as the hydrates according to the invention and especially the tetrahydrate according to the invention, i.e. crystalline form S3. From the Ethanol Vapour Sorption curve as shown in FIG. 21 and as discussed above, it can be seen that at elevated Ethanol partial pressure, approx. 17 wt % Ethanol are taken up by the sample.

[3] = Conditioning of amorphous Cilengitide under mixed water-ethanol atmospheres (stoichiometry by KF, HS-GC, NMR); format: physicochemical
Source text: Stoichiometries as determined by Karl-Fischer titration (KF) for quantification of water and head space gas-chromatography (HS-GC) (and nuclear magnetic resonance spectroscopy (NMR)) for quantification of ethanol are depicted in Table 3. In the table also points representing stochiometries with more than 4 molecules of water per molecule of Cilengitide are visible. As there is no space for more than 4 molecules of water in the crystal lattice excess amounts of more than 4 molecules of water represent adsorbed moisture.
Also the modifications and the lattice parameters from indexing of the diffractograms are compiled in Table 3.

[4] = per 1 mol Cil, EtOH liquid phase 10 v %
[5] = per 1 mol Cil, EtOH liquid phase 20 v %
[6] = per 1 mol Cil, EtOH liquid phase 50 v %
[7] = per 1 mol Cil, EtOH liquid phase 70 v %
[8] = per 1 mol Cil, EtOH liquid phase 80 v %
[9] = per 1 mol Cil, EtOH liquid phase 85 v %
[10] = per 1 mol Cil, EtOH liquid phase 90 v %
[11] = per 1 mol Cil, EtOH liquid phase 95 v %
[12] = per 1 mol Cil, EtOH liquid phase 100 v %

Ethanol in the mixture with Water leading to form S2 ([1]; 0° C. for 1 day): 20-80 v %
Ethanol in the mixture with Water leading to form S2 ([1]; RT for 3 weeks): 40-70 v %
Ethanol in the mixture with Water leading to form S2 ([1]; RT for 1 day): 40-80 v %
Thermodynamic stability of the form [2]: thermodynamically stable form
Ethanol taken up by the sample ([2]; elevated Ethanol partial pressure, starting with a hydrate structure): approx. 17 wt %
Mass gain ([2]; ethanol vapor at 98% relative saturation, 25° C., starting with the tetrahydrate): 17%
EtOH HS-GC ([3]; EtOH liquid phase 10 v %): 3.2 wt %
H2O KF ([3]; EtOH liquid phase 10 v %): 9.5 wt %
Σ TG ([3]; EtOH liquid phase 10 v %): 12.5 wt %
EtOH HS-GC ([3]; EtOH liquid phase 20 v %): 4.3 wt %
H2O KF ([3]; EtOH liquid phase 20 v %): 8.4 wt %
Σ TG ([3]; EtOH liquid phase 20 v %): 13.0 wt %
EtOH HS-GC ([3]; EtOH liquid phase 50 v %): 6.9 wt % and 6.2 wt %
H2O KF ([3]; EtOH liquid phase 50 v %): 7.8 wt % and 6.8 wt %
Σ TG ([3]; EtOH liquid phase 50 v %): 13.7 wt % and 12.6 wt %
EtOH HS-GC ([3]; EtOH liquid phase 70 v %): 6.4 wt %
H2O KF ([3]; EtOH liquid phase 70 v %): 6.2 wt %
Σ TG ([3]; EtOH liquid phase 70 v %): 12.4 wt %
EtOH HS-GC ([3]; EtOH liquid phase 80 v %): 6.7 wt %
H2O KF ([3]; EtOH liquid phase 80 v %): 5.9 wt %
Σ TG ([3]; EtOH liquid phase 80 v %): 12.8 wt %
EtOH HS-GC ([3]; EtOH liquid phase 85 v %): 9.1 wt %
H2O KF ([3]; EtOH liquid phase 85 v %): 4.1 wt %
Σ TG ([3]; EtOH liquid phase 85 v %): 12.9 wt %
EtOH HS-GC ([3]; EtOH liquid phase 90 v %): 12.5 wt %
H2O KF ([3]; EtOH liquid phase 90 v %): 1.7 wt % and 1.2 wt %
Σ TG ([3]; EtOH liquid phase 90 v %): 13.8 wt % and 13.6 wt %
EtOH HS-GC ([3]; EtOH liquid phase 95 v %): 13.1 wt %
H2O KF ([3]; EtOH liquid phase 95 v %): 0.4 wt %
Σ TG ([3]; EtOH liquid phase 95 v %): 13.7 wt %
EtOH HS-GC ([3]; EtOH liquid phase 100 v %): 13.6 wt %
H2O KF ([3]; EtOH liquid phase 100 v %): 0.7 wt %
Σ TG ([3]; EtOH liquid phase 100 v %): 14.0 wt %
EtOH HS-GC [3, 4]: 0.5 mol
EtOH NMR [3, 4]: 0.5 mol
H2O KF [3, 4]: 3.6 mol
EtOH HS-GC [3, 5]: 0.6 mol
EtOH NMR [3, 5]: 0.7 mol
H2O KF [3, 5]: 3.1 mol
EtOH HS-GC [3, 6]: 1.0 mol and 0.9 mol
EtOH NMR [3, 6]: 1.0 mol
H2O KF [3, 6]: 3.0 mol and 2.5 mol
EtOH HS-GC [3, 7]: 0.9 mol
H2O KF [3, 7]: 2.3 mol
EtOH HS-GC [3, 8]: 1.0 mol
H2O KF [3, 8]: 2.2 mol
EtOH HS-GC [3, 9]: 1.3 mol
H2O KF [3, 9]: 1.5 mol
EtOH HS-GC [3, 10]: 1.9 mol
H2O KF [3, 10]: 0.6 mol and 0.5 mol
EtOH HS-GC [3, 11]: 1.9 mol
H2O KF [3, 11]: 0.2 mol
EtOH HS-GC [3, 12]: 2.0 mol
EtOH NMR [3, 12]: 2.0 mol
H2O KF [3, 12]: 0.3 mol
Substance: cyclo-(Arg-Gly-Asp-DPhe-NMe-Val) [crystalline form S2]
